Test results from patent US6693103B2 (Wyeth, priority 1999, dated 2004).

Tests used:
[1] = test system: rat uterine decidualization; assay: Rat decidualization assay; format: in vivo; details: ovariectomized female Sprague-Dawley rats, s.c.; average of dose-response curves
Description: The animals are treated once daily for seven days.
Uteri are removed and trimmed of fat.
Decidual response: [(D−C)/C]×100%

average EC50 for uterine weight (decidual response) [1] [mg/kg]	melting point [°C]	Structure (SMILES)
0.10		C#C[C@]1(O)CC[C@H]2[C@@H]3CCC4=CC(=O)CC[C@@H]4[C@H]3C(=C)C[C@@]21CC [3-Ketodesogestrel]
	190 to 192	CC1(C)CC(=O)Nc2ccc(-c3cccc(C#N)c3)cc21 [Example 42, 3-(4,4-Dimethyl-2-oxo-1,2,3,4-tetrahydroquinolin-6-yl)benzonitrile]
0.10		C#C[C@]1(O)CC[C@H]2[C@@H]3CCC4=CC(=O)CC[C@@H]4[C@H]3CC[C@@]21CC [Levonorgestrel]
